Measurements from PubChem BioAssay AID2060906 (Molecular Pharmacology Branch, DTP, NCI, 2025).
“And” between values parts separate entries of the source, which are not always exact repeats. Identical values can stand only once.

Test system: 485176-168-R4-J1-PDC complex spheroid growth
Assay: Anticancer human tumor 485176-168-R4-J1-PDC patient-derived pancreatic adenocarcinoma cell line growth inhibition [RAS]
Settings: for viability, T/C: stronger effect = lower value
Outline: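 Multi-cell-type spheroids: tumor cells plus HUVEC endothelial cells and mesenchymal stem cells. RAS-pathway inhibitors were combined with targeted agents, each dosed in half-log steps down from clinical Cmax, or from 10 microM when Cmax was unknown.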
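Further: spheroids exposed to compounds for seven days before readout.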
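Wherever viability, T/C is given: luminescence viability expressed relative to DMSO vehicle wells set as 100%.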

O=C(c1ccc(F)c(F)c1Nc1ccc(I)cc1F)N1CC(O)([C@@H]2CCCCN2)C1 + C#Cc1c(F)ccc2cc(O)cc(-c3ncc4c(N5CC6CCC(C5)N6)nc(OCC56CCCN5CC(F)C6)nc4c3F)c12
IC50 (curve of first compound, second compound 0.0316 µM): 358 nM | IC50 (curve of first compound, second compound 0.1 µM): 267 nM | IC50 (curve of first compound, second compound 0.316 µM): 231 nM | IC50 (curve of first compound, second compound 1 µM): 31 nM | IC50 (curve of first compound, second compound 3.16 µM): 88.8 nM | IC50 (curve of first compound, second compound 10 µM): 53.9 nM | viability, T/C (second compound 0.0316 µM, first compound 0.00316 µM): 80.3% | viability, T/C (second compound 0.0316 µM, first compound 0.01 µM): 79.3% | viability, T/C (second compound 0.0316 µM, first compound 0.0316 µM): 69.7% | viability, T/C (second compound 0.0316 µM, first compound 0.1 µM): 72.4% | viability, T/C (second compound 0.0316 µM, first compound 0.316 µM): 50.5% | viability, T/C (second compound 0.0316 µM, first compound 1 µM): 41.1% | viability, T/C (second compound 0.1 µM, first compound 0.00316 µM): 79% | viability, T/C (second compound 0.1 µM, first compound 0.01 µM): 82.2% | viability, T/C (second compound 0.1 µM, first compound 0.0316 µM): 72.6% | viability, T/C (second compound 0.1 µM, first compound 0.1 µM): 62.5% | viability, T/C (second compound 0.1 µM, first compound 0.316 µM): 48.2% | viability, T/C (second compound 0.1 µM, first compound 1 µM): 37.5% | viability, T/C (second compound 0.316 µM, first compound 0.00316 µM): 88% | viability, T/C (second compound 0.316 µM, first compound 0.01 µM): 72.3% | viability, T/C (second compound 0.316 µM, first compound 0.0316 µM): 71.1% | viability, T/C (second compound 0.316 µM, first compound 0.1 µM): 56% | viability, T/C (second compound 0.316 µM, first compound 0.316 µM): 45.4% | viability, T/C (second compound 0.316 µM, first compound 1 µM): 41% | viability, T/C (second compound 1 µM, first compound 0.00316 µM): 96% | viability, T/C (second compound 1 µM, first compound 0.01 µM): 77.7% | viability, T/C (second compound 1 µM, first compound 0.0316 µM): 49.5% | viability, T/C (second compound 1 µM, first compound 0.1 µM): 47.3% | viability, T/C (second compound 1 µM, first compound 0.316 µM): 58.2% | viability, T/C (second compound 1 µM, first compound 1 µM): 38.9% | viability, T/C (second compound 3.16 µM, first compound 0.00316 µM): 90.4% | viability, T/C (second compound 3.16 µM, first compound 0.01 µM): 86.4% | viability, T/C (second compound 3.16 µM, first compound 0.0316 µM): 64.4% | viability, T/C (second compound 3.16 µM, first compound 0.1 µM): 50.6% | viability, T/C (second compound 3.16 µM, first compound 0.316 µM): 38.3% | viability, T/C (second compound 3.16 µM, first compound 1 µM): 39.2% | viability, T/C (second compound 10 µM, first compound 0.00316 µM): 98.3% | viability, T/C (second compound 10 µM, first compound 0.01 µM): 60.1% | viability, T/C (second compound 10 µM, first compound 0.0316 µM): 57.8% | viability, T/C (second compound 10 µM, first compound 0.1 µM): 51% | viability, T/C (second compound 10 µM, first compound 0.316 µM): 46.8% | viability, T/C (second compound 10 µM, first compound 1 µM): 29.9%

CC(C)NCC(C(=O)N1CCN(c2ncnc3c2C(C)CC3O)CC1)c1ccc(Cl)cc1 (stereo not drawn)
viability, T/C (compound 0.0316 µM): 96.6% [middle of 4 runs] | viability, T/C (compound 0.1 µM): 93.9% [middle of 4 runs] | viability, T/C (compound 0.316 µM): 80.4% [middle of 4 runs] | viability, T/C (compound 1 µM): 58.8% [middle of 4 runs] | viability, T/C (compound 3.16 µM): 47.7% [middle of 4 runs] | viability, T/C (compound 10 µM): 35% [middle of 4 runs] | IC50 (curve of compound): 2.32 µM [middle of 4 runs]

CC(C)n1nc(-c2ccc3oc(N)nc3c2)c2c(N)ncnc21 + CCn1c(-c2cc(N3CCN(C)CC3)cnc2C(C)OC)c2c3cc(ccc31)-c1csc(n1)CC(NC(=O)C1CC1C)C(=O)N1CCCC(N1)C(=O)OCC(C)(C)C2
IC50 (curve of first compound, second compound 0.000949 µM): 20.3 nM | IC50 (curve of first compound, second compound 0.003 µM): 23 nM | IC50 (curve of first compound, second compound 0.00949 µM): 18.5 nM | IC50 (curve of first compound, second compound 0.03 µM): 13.8 nM | IC50 (curve of first compound, second compound 0.0949 µM): 10.9 nM | IC50 (curve of first compound, second compound 0.3 µM): 9.46 nM | viability, T/C (second compound 0.000949 µM, first compound 0.000316 µM): 98.5% | viability, T/C (second compound 0.000949 µM, first compound 0.001 µM): 93.7% | viability, T/C (second compound 0.000949 µM, first compound 0.00316 µM): 76.8% | viability, T/C (second compound 0.000949 µM, first compound 0.01 µM): 70.4% | viability, T/C (second compound 0.000949 µM, first compound 0.0316 µM): 37.4% | viability, T/C (second compound 0.000949 µM, first compound 0.1 µM): 19.2% | viability, T/C (second compound 0.003 µM, first compound 0.000316 µM): 96.8% | viability, T/C (second compound 0.003 µM, first compound 0.001 µM): 89.6% | viability, T/C (second compound 0.003 µM, first compound 0.00316 µM): 93.3% | viability, T/C (second compound 0.003 µM, first compound 0.01 µM): 65.9% | viability, T/C (second compound 0.003 µM, first compound 0.0316 µM): 44.4% | viability, T/C (second compound 0.003 µM, first compound 0.1 µM): 18.5% | viability, T/C (second compound 0.00949 µM, first compound 0.000316 µM): 97.1% | viability, T/C (second compound 0.00949 µM, first compound 0.001 µM): 89% | viability, T/C (second compound 0.00949 µM, first compound 0.00316 µM): 76.9% | viability, T/C (second compound 0.00949 µM, first compound 0.01 µM): 63.9% | viability, T/C (second compound 0.00949 µM, first compound 0.0316 µM): 38.4% | viability, T/C (second compound 0.00949 µM, first compound 0.1 µM): 19.1% | viability, T/C (second compound 0.03 µM, first compound 0.000316 µM): 95.9% | viability, T/C (second compound 0.03 µM, first compound 0.001 µM): 81% | viability, T/C (second compound 0.03 µM, first compound 0.00316 µM): 63% | viability, T/C (second compound 0.03 µM, first compound 0.01 µM): 63.3% | viability, T/C (second compound 0.03 µM, first compound 0.0316 µM): 34.8% | viability, T/C (second compound 0.03 µM, first compound 0.1 µM): 23.6% | viability, T/C (second compound 0.0949 µM, first compound 0.000316 µM): 94.3% | viability, T/C (second compound 0.0949 µM, first compound 0.001 µM): 84.8% | viability, T/C (second compound 0.0949 µM, first compound 0.00316 µM): 61.5% | viability, T/C (second compound 0.0949 µM, first compound 0.01 µM): 57.3% | viability, T/C (second compound 0.0949 µM, first compound 0.0316 µM): 30.9% | viability, T/C (second compound 0.0949 µM, first compound 0.1 µM): 17.4% | viability, T/C (second compound 0.3 µM, first compound 0.000316 µM): 81.1% | viability, T/C (second compound 0.3 µM, first compound 0.001 µM): 77% | viability, T/C (second compound 0.3 µM, first compound 0.00316 µM): 68.2% | viability, T/C (second compound 0.3 µM, first compound 0.01 µM): 50.2% | viability, T/C (second compound 0.3 µM, first compound 0.0316 µM): 25.9% | viability, T/C (second compound 0.3 µM, first compound 0.1 µM): 16.1%

CC(=O)OC12COC1CC(O)C1(C)C(=O)C(O)C3=C(C)C(OC(=O)C(O)C(NC(=O)OC(C)(C)C)c4ccccc4)CC(O)(C(OC(=O)c4ccccc4)C21)C3(C)C (stereo not drawn)
viability, T/C (compound 0.0316 µM): 15.6% [middle of 4 runs] | viability, T/C (compound 0.1 µM): 14.3% [middle of 4 runs] | viability, T/C (compound 0.316 µM): 12.7% [middle of 4 runs] | viability, T/C (compound 1 µM): 13.4% and 12.8% and 14.2% (2×) | viability, T/C (compound 3.16 µM): 17.2% [middle of 4 runs] | viability, T/C (compound 10 µM): 17.7% and 22.4% (2×) and 25.1% | IC50 (curve of compound): < 31.6 nM
